Data: PubChem BioAssay AID256 (DTP/NCI, 2004)
Toxic doses and inconclusive results are not listed.

System: CD2F1 mice, L1210 leukemia ip, survival T/C
Assay: NCI In Vivo Anticancer Drug Screen. Data for tumor model L1210 Leukemia (intraperitoneal) in CD2F1 (CDF1) mice
Details: higher = longer survival
Method in brief: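 Transplantable tumor in mice; compound-treated vs vehicle-treated groups. Read-out = treated/control ratio of the measured endpoint.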

[1] = endpoint: median survival time, dose: 50.0 mg/kg/injection, schedule: Q01DX009 (ip), vehicle: saline with Tween-80
[2] = endpoint: median survival time, dose: 100.0 mg/kg/injection, schedule: Q01DX009 (ip), vehicle: saline with Tween-80
[3] = endpoint: mean survival time, dose: 100.0 mg/kg/injection, schedule: Q01DX001 (ip), vehicle: saline with Tween-80
[4] = endpoint: mean survival time, dose: 200.0 mg/kg/injection, schedule: Q01DX001 (ip), vehicle: saline with Tween-80
[5] = endpoint: mean survival time, dose: 100.0 mg/kg/injection, schedule: Q04DX003 (ip), vehicle: saline with Tween-80
[6] = endpoint: mean survival time, dose: 200.0 mg/kg/injection, schedule: Q04DX003 (ip), vehicle: saline with Tween-80
[7] = endpoint: mean survival time, dose: 400.0 mg/kg/injection, schedule: Q04DX003 (ip), vehicle: saline with Tween-80
[8] = endpoint: mean survival time, dose: 100.0 mg/kg/injection, schedule: Q04DX003 (ip), vehicle: saline
[9] = endpoint: mean survival time, dose: 100.0 mg/kg/injection, schedule: Q01DX009 (ip), vehicle: saline
[10] = endpoint: mean survival time, dose: 200.0 mg/kg/injection, schedule: Q01DX009 (ip), vehicle: saline
[11] = endpoint: mean survival time, dose: 200.0 mg/kg/injection, schedule: Q04DX003 (ip), vehicle: saline
[12] = endpoint: mean survival time, dose: 400.0 mg/kg/injection, schedule: Q04DX003 (ip), vehicle: saline
[13] = endpoint: mean survival time, dose: 50.0 mg/kg/injection, schedule: Q01DX009 (ip), vehicle: Klucel (hydroxypropylcellulose) (HPC)
[14] = endpoint: mean survival time, dose: 100.0 mg/kg/injection, schedule: Q01DX009 (ip), vehicle: Klucel (hydroxypropylcellulose) (HPC)
[15] = endpoint: mean survival time, dose: 25.0 mg/kg/injection, schedule: Q04DX002 (ip), vehicle: saline with Tween-80

CCCC1CCC(=C2C(=O)CCC2=O)O1 (stereo not given)
T/C (endpoint: median survival time, dose: 25.0 mg/kg/injection, schedule: Q01DX009 (ip), vehicle: saline with Tween-80): 98 % of control | T/C [1]: 100 % of control | T/C [2]: 100 % of control | T/C (endpoint: median survival time, dose: 200.0 mg/kg/injection, schedule: Q01DX009 (ip), vehicle: saline with Tween-80): 102 % of control

CC(=O)Nc1cc([N+](=O)[O-])cc([N+](=O)[O-])c1O
T/C [3]: 101 % of control | T/C [4]: 98 % of control

O=C(C=P(c1ccccc1)(c1ccccc1)c1ccccc1)c1ccc([N+](=O)[O-])cc1
T/C (endpoint: mean survival time, dose: 50.0 mg/kg/injection, schedule: Q01DX001 (ip), vehicle: Klucel (hydroxypropylcellulose) (HPC)): 90 % of control | T/C (endpoint: mean survival time, dose: 100.0 mg/kg/injection, schedule: Q01DX001 (ip), vehicle: Klucel (hydroxypropylcellulose) (HPC)): 94 % of control | T/C (endpoint: mean survival time, dose: 200.0 mg/kg/injection, schedule: Q01DX001 (ip), vehicle: Klucel (hydroxypropylcellulose) (HPC)): 102 % of control | T/C (endpoint: mean survival time, dose: 400.0 mg/kg/injection, schedule: Q01DX001 (ip), vehicle: Klucel (hydroxypropylcellulose) (HPC)): 93 % of control

CCCCCCCCC(=O)OCC1OC(n2cnc3c(N)nc(Cl)nc32)CC1O (stereo not given)
T/C (endpoint: median survival time, dose: 40.0 mg/kg/injection, schedule: Q01DX009 (ip), vehicle: saline with Tween-80): 161 % of control | T/C [1]: 344 % of control | T/C (endpoint: median survival time, dose: 60.0 mg/kg/injection, schedule: Q01DX009 (ip), vehicle: saline with Tween-80): 177 % of control | T/C (endpoint: median survival time, dose: 80.0 mg/kg/injection, schedule: Q01DX009 (ip), vehicle: saline with Tween-80): 97 % of control | T/C [2]: 102 % of control

O=C(O)CCS(=O)(=O)CCC(=O)O
T/C [5]: 92 % of control | T/C [6]: 93 % of control | T/C [7]: 90 % of control

OC1CCC2CCCCC2C1 (stereo not given)
T/C (endpoint: mean survival time, dose: 25.0 mg/kg/injection, schedule: Q04DX003 (ip), vehicle: saline): 107 % of control | T/C (endpoint: mean survival time, dose: 50.0 mg/kg/injection, schedule: Q04DX003 (ip), vehicle: saline): 94 % of control | T/C [5]: 102 % of control | T/C [8]: 98 % of control | T/C [6]: 107 % of control | T/C [7]: 101 % of control

CCCCCC/C=C\C(=O)O
T/C (endpoint: mean survival time, dose: 50.0 mg/kg/injection, schedule: Q01DX009 (ip), vehicle: saline): 101 % of control | T/C [9]: 97 % of control | T/C [5]: 98 % of control | T/C [10]: 93 % of control | T/C [6]: 93 % of control | T/C [7]: 87 % of control

CC12CCc3c(ccc4cc(O)ccc34)C1CCC2=O (stereo not given)
T/C [8]: 100 % of control | T/C [11]: 97 % of control | T/C [12]: 97 % of control

COC1=C(N=[N+]=[N-])C(=O)C(OC)=C(N=[N+]=[N-])C1=O
T/C (endpoint: mean survival time, dose: 5.0 mg/kg/injection, schedule: Q01DX009 (ip), vehicle: saline with Tween-80): 101 % of control | T/C (endpoint: mean survival time, dose: 5.0 mg/kg/injection, schedule: Q04DX003 (ip), vehicle: saline with Tween-80): 93 % of control | T/C (endpoint: mean survival time, dose: 10.0 mg/kg/injection, schedule: Q01DX009 (ip), vehicle: saline with Tween-80): 94 % of control | T/C (endpoint: mean survival time, dose: 10.0 mg/kg/injection, schedule: Q04DX003 (ip), vehicle: saline with Tween-80): 95 % of control | T/C (endpoint: mean survival time, dose: 20.0 mg/kg/injection, schedule: Q01DX009 (ip), vehicle: saline with Tween-80): 94 % of control | T/C (endpoint: mean survival time, dose: 20.0 mg/kg/injection, schedule: Q04DX003 (ip), vehicle: saline with Tween-80): 95 % of control

CC1(C2CC(=O)c3c(O)ccc(O)c3C2)OCCO1 (stereo not given)
T/C (endpoint: mean survival time, dose: 25.0 mg/kg/injection, schedule: Q01DX009 (ip), vehicle: Klucel (hydroxypropylcellulose) (HPC)): 104 % of control | T/C [13]: 109 % of control | T/C [14]: 95 % of control | T/C (endpoint: mean survival time, dose: 200.0 mg/kg/injection, schedule: Q01DX009 (ip), vehicle: Klucel (hydroxypropylcellulose) (HPC)): 98 % of control | T/C (endpoint: mean survival time, dose: 400.0 mg/kg/injection, schedule: Q01DX009 (ip), vehicle: Klucel (hydroxypropylcellulose) (HPC)): 102 % of control

NCCc1nc(N)nc(N)c1-c1ccc(Cl)cc1
T/C [3]: 103 % of control | T/C [4]: 97 % of control

CCC1(O)CC2CN(CCc3c([nH]c4ccccc34)C(C(=O)OC)(c3cc4c(cc3OC)N(C)C3C(O)(C(N)=O)C(O)C5(CC)C=CCN6CCC43C65)C2)C1 (stereo not given) (tested in a mixture with another compound)
T/C (endpoint: mean survival time, dose: 0.13 mg/kg/injection, schedule: Q01DX009 (ip), vehicle: water): 121 % of control | T/C (endpoint: mean survival time, dose: 0.22 mg/kg/injection, schedule: Q01DX009 (ip), vehicle: water): 123 % of control | T/C (endpoint: mean survival time, dose: 0.23 mg/kg/injection, schedule: Q04DX003 (ip), vehicle: water): 121 % of control | T/C (endpoint: mean survival time, dose: 0.36 mg/kg/injection, schedule: Q01DX009 (ip), vehicle: water): 122 % of control | T/C (endpoint: mean survival time, dose: 0.39 mg/kg/injection, schedule: Q04DX003 (ip), vehicle: water): 124 % of control | T/C (endpoint: mean survival time, dose: 0.52 mg/kg/injection, schedule: Q04DX003 (ip), vehicle: water): 106 % of control | T/C (endpoint: mean survival time, dose: 1.44 mg/kg/injection, schedule: Q04DX003 (ip), vehicle: water): 112 % of control | T/C (endpoint: mean survival time, dose: 1.8 mg/kg/injection, schedule: Q04DX003 (ip), vehicle: water): 164 % of control | T/C (endpoint: mean survival time, dose: 4.0 mg/kg/injection, schedule: Q04DX003 (ip), vehicle: water): 104 % of control | T/C (endpoint: mean survival time, dose: 130.0 micrograms/kg/injection, schedule: Q01DX009 (ip), vehicle: water): 102 % of control | T/C (endpoint: mean survival time, dose: 216.0 micrograms/kg/injection, schedule: Q01DX009 (ip), vehicle: water): 107 % of control | T/C (endpoint: mean survival time, dose: 360.0 micrograms/kg/injection, schedule: Q01DX009 (ip), vehicle: water): 113 % of control | T/C (endpoint: mean survival time, dose: 600.0 micrograms/kg/injection, schedule: Q01DX009 (ip), vehicle: water): 120 % of control | T/C (endpoint: mean survival time, dose: 1000.0 micrograms/kg/injection, schedule: Q01DX009 (ip), vehicle: water): 122 % of control

C=C[CH2][Sn]([Br])([c]1ccccc1)[c]1ccccc1
T/C (endpoint: mean survival time, dose: 6.25 mg/kg/injection, schedule: Q01DX009 (ip), vehicle: saline with Tween-80): 94 % of control | T/C [15]: 89 % of control

S=c1nn[nH]n1-c1ccccc1
T/C [9]: 103 % of control | T/C [10]: 109 % of control

O=[N+]([O-])c1ccc(/C=C/C=C/c2ccc(Cl)c(S(=O)(=O)F)c2)c(Cl)c1
T/C (endpoint: mean survival time, dose: 100.0 mg/kg/injection, schedule: Q01DX009 (ip), vehicle: saline with Tween-80): 97 % of control | T/C [5]: 102 % of control | T/C (endpoint: mean survival time, dose: 200.0 mg/kg/injection, schedule: Q01DX009 (ip), vehicle: saline with Tween-80): 103 % of control | T/C [6]: 102 % of control | T/C (endpoint: mean survival time, dose: 400.0 mg/kg/injection, schedule: Q01DX009 (ip), vehicle: saline with Tween-80): 106 % of control | T/C [7]: 102 % of control

Cc1cc2nc(Cc3ccccc3)[nH]c2cc1C
T/C (endpoint: mean survival time, dose: 12.5 mg/kg/injection, schedule: Q01DX009 (ip), vehicle: saline with Tween-80): 102 % of control | T/C (endpoint: mean survival time, dose: 25.0 mg/kg/injection, schedule: Q01DX009 (ip), vehicle: saline with Tween-80): 95 % of control | T/C (endpoint: mean survival time, dose: 50.0 mg/kg/injection, schedule: Q01DX009 (ip), vehicle: saline with Tween-80): 91 % of control | T/C [5]: 94 % of control | T/C [6]: 86 % of control

C[N+](C)(CC(=O)O)c1ccccc1
T/C [8]: 98 % of control | T/C [11]: 96 % of control | T/C [12]: 108 % of control

CC(C)(C)C1=Nc2ccccc2[Si]1(C)C
T/C [3]: 98 % of control | T/C [4]: 102 % of control | T/C (endpoint: mean survival time, dose: 400.0 mg/kg/injection, schedule: Q01DX001 (ip), vehicle: saline with Tween-80): 95 % of control

CN(C)[C@@H]1C(=O)C(C(N)=O)=C(O)[C@]2(O)C(=O)C3C(=O)c4c(O)ccc(Cl)c4[C@](C)(O)[C@H]3C[C@@H]12 (stereo not given in full)
T/C [13]: 107 % of control | T/C [14]: 118 % of control | T/C (endpoint: mean survival time, dose: 225.0 mg/kg/injection, schedule: Q01DX009 (ip), vehicle: acetone): 101 % of control

O=C(COc1ccc(Cl)cc1Cl)OCCI
T/C (endpoint: mean survival time, dose: 100.0 mg/kg/injection, schedule: Q04DX002 (ip), vehicle: saline with Tween-80): 97 % of control | T/C (endpoint: mean survival time, dose: 200.0 mg/kg/injection, schedule: Q04DX002 (ip), vehicle: saline with Tween-80): 102 % of control

COc1ccc(Cl)cc1C/C=N/N(C)C
T/C (endpoint: mean survival time, dose: 75.0 mg/kg/injection, schedule: Q01DX001 (ip), vehicle: saline): 103 % of control | T/C (endpoint: mean survival time, dose: 150.0 mg/kg/injection, schedule: Q01DX001 (ip), vehicle: saline): 105 % of control

CC(C)=[C-]N(C)C.[C-]#[O+].[C-]#[O+].[C-]#[O+].[C-]#[O+].[C-]#[O+].[Mn]
T/C (endpoint: mean survival time, dose: 12.5 mg/kg/injection, schedule: Q04DX002 (ip), vehicle: saline with Tween-80): 110 % of control | T/C [15]: 103 % of control
